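A five-concentration, 48-hour dose response in 96-well plates underlies each endpoint, interpolated linearly between surrounding concentrations. At the GI50, growth is halved. TGI denotes the concentration required for complete inhibition of growth.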
What was measured:
Test in all cases: DTP human tumour cell line panel, 48 h
LOX IMVI melanoma = test system: LOX IMVI melanoma
LXFL 529 NSCLC = test system: LXFL 529 NSCLC
SK-OV-3 ovarian = test system: SK-OV-3 ovarian
HCT-116 colon = test system: HCT-116 colon
OVCAR-3 ovarian = test system: OVCAR-3 ovarian
M19-MEL melanoma = test system: M19-MEL melanoma
SN12C renal = test system: SN12C renal
RXF 393 renal = test system: RXF 393 renal
DMS 273 small cell lung = test system: DMS 273 small cell lung

## Cc1cc(C)c(-c2noc(-c3ccc(Cl)cc3)c2C2=NCCCN2)c(C)c1
LOX IMVI melanoma
  TGI: 37.1 µM
LXFL 529 NSCLC
  TGI: > 100 µM
SK-OV-3 ovarian
  TGI: > 100 µM
HCT-116 colon
  TGI: > 100 µM
OVCAR-3 ovarian
  TGI: > 100 µM
M19-MEL melanoma
  TGI: > 100 µM
SN12C renal
  TGI: 82.6 µM
RXF 393 renal
  TGI: 48.5 µM

## Clc1cccc(-c2nnc(-c3nn(-c4ccccc4)c4nc5ccccc5nc34)o2)c1
LOX IMVI melanoma
  TGI: > 100 µM
LXFL 529 NSCLC
  TGI: > 100 µM
SK-OV-3 ovarian
  TGI: > 100 µM
HCT-116 colon
  TGI: > 100 µM
OVCAR-3 ovarian
  TGI: > 100 µM
M19-MEL melanoma
  TGI: > 100 µM
SN12C renal
  TGI: > 100 µM
RXF 393 renal
  TGI: > 100 µM
DMS 273 small cell lung
  TGI: > 100 µM

## O=c1c(Cl)c(Cl)cnn1CCCl
LOX IMVI melanoma
  TGI: 14.3 µM
LXFL 529 NSCLC
  TGI: 3.1 µM
SK-OV-3 ovarian
  TGI: 21.7 µM
HCT-116 colon
  TGI: 17 µM
OVCAR-3 ovarian
  TGI: 11.9 µM
M19-MEL melanoma
  TGI: 8.75 µM
SN12C renal
  TGI: 25.5 µM
RXF 393 renal
  TGI: 4.74 µM
DMS 273 small cell lung
  TGI: 21 µM

## O=C(Nc1ccc(Cl)cc1Cl)OC(Cn1cncn1)c1ccc(Cl)cc1Cl (stereo not drawn)
LOX IMVI melanoma
  TGI: 29.9 µM
LXFL 529 NSCLC
  TGI: 30.6 µM
SK-OV-3 ovarian
  TGI: 34.7 µM
HCT-116 colon
  TGI: 27.1 µM
OVCAR-3 ovarian
  TGI: 29.3 µM
M19-MEL melanoma
  TGI: 30.8 µM
SN12C renal
  TGI: 30.7 µM
RXF 393 renal
  TGI: 30.9 µM
DMS 273 small cell lung
  TGI: 31.4 µM

## COc1c(-c2ccccc2)nc2ccc(Oc3ccccc3)nn12
LOX IMVI melanoma
  TGI: > 100 µM
LXFL 529 NSCLC
  TGI: > 100 µM
SK-OV-3 ovarian
  TGI: > 100 µM
HCT-116 colon
  TGI: > 100 µM
OVCAR-3 ovarian
  TGI: > 100 µM
M19-MEL melanoma
  TGI: > 100 µM
SN12C renal
  TGI: > 100 µM
RXF 393 renal
  TGI: > 73.6 µM
DMS 273 small cell lung
  TGI: > 100 µM

## O=C(/C=C\c1cccc2ccccc12)c1ccc(Cl)cc1Cl
LXFL 529 NSCLC
  TGI: 32.8 µM
SK-OV-3 ovarian
  TGI: > 100 µM
HCT-116 colon
  TGI: 33.6 µM
OVCAR-3 ovarian
  TGI: 43.5 µM
M19-MEL melanoma
  TGI: 35.9 µM
SN12C renal
  TGI: > 100 µM
DMS 273 small cell lung
  TGI: 34.8 µM

## CC1CCC2CC(=O)OC([C@@H]3C(=O)O[C@@H](C4=CCCC4)C4C(C)CCC43)C12 (stereo partly drawn)
LOX IMVI melanoma
  TGI: > 100 µM
LXFL 529 NSCLC
  TGI: > 100 µM
SK-OV-3 ovarian
  TGI: > 100 µM
HCT-116 colon
  TGI: > 100 µM
OVCAR-3 ovarian
  TGI: > 100 µM
M19-MEL melanoma
  TGI: > 100 µM
SN12C renal
  TGI: > 100 µM
RXF 393 renal
  TGI: > 100 µM
DMS 273 small cell lung
  TGI: > 100 µM

## COc1ccc(S(=O)(=O)N(CC(=O)O)c2ccccc2)cc1
LOX IMVI melanoma
  TGI: > 100 µM
LXFL 529 NSCLC
  TGI: > 100 µM
SK-OV-3 ovarian
  TGI: > 100 µM
OVCAR-3 ovarian
  TGI: > 100 µM
M19-MEL melanoma
  TGI: > 100 µM
SN12C renal
  TGI: > 100 µM
RXF 393 renal
  TGI: > 100 µM
DMS 273 small cell lung
  TGI: > 100 µM

## Nc1c(Cl)ncnc1NCCCCCCCCCCCCNc1ncnc(Cl)c1N
LOX IMVI melanoma
  TGI: 6.52 µM
LXFL 529 NSCLC
  TGI: 20.5 µM
SK-OV-3 ovarian
  TGI: > 100 µM
HCT-116 colon
  TGI: 6.05 µM
OVCAR-3 ovarian
  TGI: 8.35 µM
M19-MEL melanoma
  TGI: 18.8 µM
SN12C renal
  TGI: 39.6 µM
RXF 393 renal
  TGI: 8.01 µM
DMS 273 small cell lung
  TGI: 10.2 µM

## O=C(Nc1ccc(Cl)c(Cl)c1)C(=O)C(C(=O)c1ccccc1-c1ccccc1)C1OC(=O)c2ccccc21 (stereo not drawn)
LOX IMVI melanoma
  TGI: 28.9 µM
LXFL 529 NSCLC
  TGI: 21 µM
SK-OV-3 ovarian
  TGI: 78.3 µM
HCT-116 colon
  TGI: 22.3 µM
OVCAR-3 ovarian
  TGI: 31.9 µM
M19-MEL melanoma
  TGI: 33.9 µM
RXF 393 renal
  TGI: 21.5 µM

## COC(=O)[C@@H]1Cc2c([nH]c3ccccc23)[C@H](c2ccccc2)N1
LOX IMVI melanoma
  TGI: > 100 µM
LXFL 529 NSCLC
  TGI: > 100 µM
SK-OV-3 ovarian
  TGI: 89.7 µM
HCT-116 colon
  TGI: > 100 µM
OVCAR-3 ovarian
  TGI: 98.7 µM
M19-MEL melanoma
  TGI: > 100 µM
SN12C renal
  TGI: 81.5 µM
DMS 273 small cell lung
  TGI: 57.8 µM

## CN(/N=C/c1ccnc2ccccc12)c1c([N+](=O)[O-])cc([N+](=O)[O-])cc1[N+](=O)[O-]
LOX IMVI melanoma
  TGI: > 100 µM
LXFL 529 NSCLC
  TGI: > 100 µM
SK-OV-3 ovarian
  TGI: > 100 µM
OVCAR-3 ovarian
  TGI: > 100 µM
M19-MEL melanoma
  TGI: > 100 µM
SN12C renal
  TGI: > 100 µM
RXF 393 renal
  TGI: > 100 µM
DMS 273 small cell lung
  TGI: > 100 µM

## COc1ccc(OC)c(/C=N/N=C(\N)NO)c1
LOX IMVI melanoma
  TGI: > 100 µM
LXFL 529 NSCLC
  TGI: > 100 µM
SK-OV-3 ovarian
  TGI: > 100 µM
HCT-116 colon
  TGI: > 100 µM
OVCAR-3 ovarian
  TGI: > 100 µM
M19-MEL melanoma
  TGI: > 100 µM
SN12C renal
  TGI: > 100 µM
RXF 393 renal
  TGI: > 100 µM
DMS 273 small cell lung
  TGI: > 100 µM

## CN(/N=C\c1ccnc2ccccc12)c1ccc([N+](=O)[O-])cc1
LOX IMVI melanoma
  TGI: > 100 µM
LXFL 529 NSCLC
  TGI: > 100 µM
SK-OV-3 ovarian
  TGI: > 100 µM
HCT-116 colon
  TGI: > 100 µM
OVCAR-3 ovarian
  TGI: > 100 µM
M19-MEL melanoma
  TGI: > 100 µM
SN12C renal
  TGI: > 100 µM
DMS 273 small cell lung
  TGI: > 100 µM

## COC(=O)[C@@]12CC(C(C)C)[C@H]3CC(C(=O)C=C1OC)[C@H]32 (stereo partly drawn)
LXFL 529 NSCLC
  TGI: > 100 µM
SK-OV-3 ovarian
  TGI: > 100 µM
HCT-116 colon
  TGI: > 100 µM
OVCAR-3 ovarian
  TGI: > 100 µM
M19-MEL melanoma
  TGI: > 100 µM
SN12C renal
  TGI: > 100 µM
RXF 393 renal
  TGI: > 100 µM
DMS 273 small cell lung
  TGI: > 100 µM

## COC(=O)C1=CC2C=CC(C1C(=O)OC)C1C(C(=O)OC)=C(C(=O)OC)C(C(=O)OC)=C(C(=O)OC)C21OC (stereo not drawn)
LOX IMVI melanoma
  TGI: > 100 µM
LXFL 529 NSCLC
  TGI: > 100 µM
SK-OV-3 ovarian
  TGI: > 100 µM
HCT-116 colon
  TGI: > 100 µM
OVCAR-3 ovarian
  TGI: > 100 µM
M19-MEL melanoma
  TGI: > 100 µM
SN12C renal
  TGI: > 100 µM
RXF 393 renal
  TGI: > 100 µM
DMS 273 small cell lung
  TGI: > 100 µM

## N/N=C(/Cc1nc2ccc(C(=O)c3ccccc3)cc2[nH]c1=O)C(=O)Nc1ccc([N+](=O)[O-])cc1[N+](=O)[O-]
LOX IMVI melanoma
  GI50: > 100 µM
  TGI: > 100 µM
LXFL 529 NSCLC
  GI50: > 100 µM
  TGI: > 100 µM
SK-OV-3 ovarian
  TGI: > 100 µM
HCT-116 colon
  GI50: > 100 µM
  TGI: > 100 µM
M19-MEL melanoma
  GI50: > 100 µM
  TGI: > 100 µM
SN12C renal
  GI50: > 100 µM
  TGI: > 100 µM
RXF 393 renal
  TGI: > 100 µM
DMS 273 small cell lung
  GI50: > 100 µM
  TGI: > 100 µM

## CC(=O)[C@H]1CCC2[C@@H]3CC=C4C[C@@H]([O-])CC[C@]4(C)C3CC[C@@]21C.CC(=O)[C@H]1CCC2[C@@H]3CC=C4C[C@@H]([O-])CC[C@]4(C)C3CC[C@@]21C.CC(=O)[CH-]C(=O)c1ccccc1.CC(=O)[CH-]C(=O)c1ccccc1.Cl.[Ti+4] (stereo partly drawn)
LOX IMVI melanoma
  GI50: 29 µM
  TGI: > 100 µM
LXFL 529 NSCLC
  GI50: 32.1 µM
  TGI: > 100 µM
SK-OV-3 ovarian
  GI50: 26.6 µM
  TGI: 77.4 µM
HCT-116 colon
  GI50: 25.7 µM
  TGI: > 100 µM
OVCAR-3 ovarian
  GI50: 39.5 µM
  TGI: > 100 µM
M19-MEL melanoma
  GI50: 43.5 µM
  TGI: > 100 µM
SN12C renal
  GI50: 34.1 µM
  TGI: > 100 µM
RXF 393 renal
  GI50: 27.1 µM
  TGI: > 100 µM
DMS 273 small cell lung
  GI50: 30.3 µM
  TGI: > 100 µM

## Cc1nc2c(o1)C(=Nc1ccccc1)c1nc(C)oc1C2=Nc1ccccc1
LOX IMVI melanoma
  TGI: 60.4 µM
LXFL 529 NSCLC
  TGI: 45.1 µM
SK-OV-3 ovarian
  TGI: 40.4 µM
HCT-116 colon
  TGI: 37.6 µM
OVCAR-3 ovarian
  TGI: > 100 µM
M19-MEL melanoma
  TGI: 47.6 µM
SN12C renal
  TGI: 34.8 µM
RXF 393 renal
  TGI: 37.5 µM
DMS 273 small cell lung
  TGI: 50.5 µM

## O=C(/C=C/c1cccc([N+](=O)[O-])c1)c1ccc([N+](=O)[O-])cc1
LOX IMVI melanoma
  TGI: > 100 µM
LXFL 529 NSCLC
  TGI: > 100 µM
SK-OV-3 ovarian
  TGI: > 100 µM
HCT-116 colon
  TGI: > 100 µM
OVCAR-3 ovarian
  TGI: > 100 µM
M19-MEL melanoma
  TGI: > 100 µM
SN12C renal
  TGI: > 100 µM
RXF 393 renal
  TGI: > 100 µM
DMS 273 small cell lung
  TGI: > 100 µM

## COC(=O)C1C(=O)O[C@@H](c2cc(OC)c(OC)cc2OC)C1C(=O)OC (mixture of isomers)
LOX IMVI melanoma
  TGI: > 100 µM
LXFL 529 NSCLC
  TGI: > 100 µM
SK-OV-3 ovarian
  TGI: > 100 µM
HCT-116 colon
  TGI: > 100 µM
OVCAR-3 ovarian
  TGI: > 100 µM
M19-MEL melanoma
  TGI: > 100 µM
SN12C renal
  TGI: > 100 µM
RXF 393 renal
  TGI: > 100 µM
DMS 273 small cell lung
  TGI: > 100 µM
